{
  "source": "paper PMC3665789",
  "about": "(PLoS ONE, 2013)",
  "key": {"[1]": {"assay": "Cytotoxicity assay (MTS/PES)", "format": "cell-based, human", "conditions": "HEL cells, 3 days", "description": "Cytotoxicity in PBMCs (3 days), MT-4 (5 days), HUT-78 (1 day), C8166-(5 days), HEL (3 days) and Daudi cells (3 days) was measured using the MTS/PES method. The duration of the assays is given between brackets."}, "[2]": {"test_system": "HSV-2 TK^- BA19026589 (clinical isolate)", "conditions": "HEL cells, CPE"}, "HSV-1 TK^-": {"test_system": "HSV-1 TK^-", "conditions": "read-out: Median EC50; median over HSV-1 TK- strains; HEL cells"}, "[3]": {"test_system": "HSV-1 wild-type RV-175 (clinical isolate)", "conditions": "HEL cells; HSV-1 RV-175; CPE"}, "HIV-1 IIIB^FGMres. (X4)": {"test_system": "HIV-1 IIIB^FGMres. (X4)", "conditions": "read-out: EC50 (µM ± SEM); MT-4 cells; IIIB resistant to feglymycin (FGM); MTS/PES"}, "HSV-2 strain G": {"test_system": "HSV-2 strain G", "assay": "Time-of-drug-addition study, HSV-2", "format": "cell-based", "conditions": "HEL cells; LabyA1 19 µM, ACV 35 µM; after 3 days", "description": "TOA experiments for HSV-2 were performed identically as the viral replication assays, but each compound separately (LabyA1 or ACV) was added together with the virus (0 h) or after 2 h post-infection. The reference compound was added at least 100 times its EC50-value, as obtained in the HEL cell line (Table 3)."}, "CCR5": {"biological_target": "T1, CCR5 (Homo sapiens, UniProt P51681)", "T1 construct": "expressed in transfected cells; host or cells: U87.CD4.CCR5 (human astroglioma U87)", "T1 sequence (P51681 whole entry)": "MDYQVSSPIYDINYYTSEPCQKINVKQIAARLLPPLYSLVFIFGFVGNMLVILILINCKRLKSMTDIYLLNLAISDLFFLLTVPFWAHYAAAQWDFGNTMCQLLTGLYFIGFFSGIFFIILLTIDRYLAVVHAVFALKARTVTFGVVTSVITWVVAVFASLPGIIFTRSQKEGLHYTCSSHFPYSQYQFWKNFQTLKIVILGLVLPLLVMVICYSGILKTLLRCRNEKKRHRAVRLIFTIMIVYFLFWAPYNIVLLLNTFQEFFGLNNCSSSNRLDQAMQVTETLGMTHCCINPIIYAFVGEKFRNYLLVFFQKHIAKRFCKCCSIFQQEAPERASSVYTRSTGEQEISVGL", "assay": "Intracellular calcium mobilization (FLIPR), U87.CD4.CCR5 cells", "format": "cell-based", "conditions": "9.6 µM", "description": "(§1) Calcium (Ca^2+) mobilization assays were performed by the use of a fluorometric imaging plate reader (FLIPR) (Molecular Devices, Sunnyvale, CA) as described previously. Briefly, U87.CD4.CCR5 or U87.CD4.CXCR4 cells were digested by trypsin and seeded in gelatine-coated black-wall 96-well microplates at 2×10^4 cells per well. The next day, the cells were loaded with the fluorescent calcium indicator Fluo-3 acetoxymethyl ester (Molecular Probes, Leiden, The Netherlands) at 4 µM for 45 min at 37°C. Cells were washed 3 times in assay buffer (Hanks’ balanced salt solution with 20 mM HEPES buffer and 0.2% bovine serum albumin, pH 7.4) and incubated for 10 min with Laby A1. The intracellular calcium mobilization induced by LD78β in U87.CD4.CCR5 cells or by SDF-1 in U87.CD4.CXCR4 cells was then measured at 37°C by monitoring the fluorescence as a function of time simultaneously in all the wells. In addition, potential intracellular calcium mobilization induced by Laby A1 was also investigated."}, "[4]": {"test_system": "HIV-1 US2 (clinical isolate; R5/X4)", "conditions": "PBMCs; US2, group M subtype B; p24 Ag ELISA"}, "HIV-1 NL4.3^AZTres. (X4)": {"test_system": "HIV-1 NL4.3^AZTres. (X4)", "conditions": "read-out: EC50 (µM ± SEM); MT-4 cells; NL4.3 resistant to azidothymidine (AZT); MTS/PES"}, "[5]": {"test_system": "HSV-2 wild-type RV-124 (clinical isolate)", "conditions": "HEL cells; HSV-2 RV-124; CPE"}, "HIV-1 IIIB (X4)": {"test_system": "HIV-1 IIIB (X4)", "conditions": "read-out: EC50 (µM ± SEM), MT-4 cells, MTS/PES method"}, "HIV-2 ROD (R5/X4) [6]": {"test_system": "HIV-2 ROD (R5/X4)", "conditions": "read-out: EC50 (µM ± SEM), PBMCs, p27 HIV-2 Ag ELISA"}, "CXCR4": {"biological_target": "CXCR4 (Homo sapiens, UniProt P61073)", "sequence (P61073 whole entry)": "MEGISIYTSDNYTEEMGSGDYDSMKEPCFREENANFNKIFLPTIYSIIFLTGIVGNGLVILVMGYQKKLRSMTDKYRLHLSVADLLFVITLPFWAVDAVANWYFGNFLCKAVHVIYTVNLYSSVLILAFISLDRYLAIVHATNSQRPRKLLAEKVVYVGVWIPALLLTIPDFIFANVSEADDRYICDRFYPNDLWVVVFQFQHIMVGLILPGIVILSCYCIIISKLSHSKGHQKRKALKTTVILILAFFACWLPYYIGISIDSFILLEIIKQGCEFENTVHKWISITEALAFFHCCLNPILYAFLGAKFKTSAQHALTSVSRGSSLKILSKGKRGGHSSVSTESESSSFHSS", "assay": "Intracellular calcium mobilization (FLIPR), U87.CD4.CXCR4 cells", "format": "cell-based", "set-up": "expressed in transfected cells; host or cells: U87.CD4.CXCR4 (human astroglioma U87)", "conditions": "9.6 µM", "description": "as §1"}, "Lactobacillus strains": {"test_system": "Lactobacillus strains", "assay": "Vaginal Lactobacillus growth assay", "format": "cell-based", "conditions": "dose up to 120 µM; 24 h, OD600", "description": "Lactobacillus strains grown overnight to stationary phase (OD600 nm ∼1.8–2.0) were used as inocula for the assay. The assay was performed in 96-well microtiter plates. Sterile wells were filled with 200 µl MRS (de Man – Rogosa – Sharpe) medium (BD Biosciences). About 0.5×10^7 colony forming units or CFUs (1/100 of an overnight culture) were added and then 5-fold dilution series of different concentrations of the used compounds were administered. The plates were incubated without shaking for 24 h at 37°C. The OD600 nm was measured after 24 h and as a negative control, each strain was grown in medium without compound (Petrova et al., in preparation)."}, "HIV-1 IIIB": {"test_system": "HIV-1 IIIB", "assay": "Time-of-drug-addition study, HIV", "format": "cell-based", "conditions": "MT-4 cells, 48 µM LabyA1", "description": "The time-of-drug-addition (TOA) experiments were performed as described. In brief, 1×10^6 MT-4 cells/ml were infected with HIV-1 X4 IIIB at a multiplicity of infection (MOI) of 0.5. The compounds were added at different time points in a range from 0 to 26 h post-infection. After 31 h, HIV-1 replication was detected by p24 HIV-1 Ag ELISA as described above. The reference compounds were added at 100 times their EC50-values, as obtained in the MT-4 cell antiviral assay."}, "HIV-1 BaL (R5)": {"test_system": "HIV-1 BaL (R5)", "conditions": "read-out: EC50 (µM ± SEM), PBMCs, p24 Ag ELISA"}, "[7]": {"assay": "Cytotoxicity assay (flow cytometry)", "format": "cell-based", "conditions": "3 days, read-out: 50% cytotoxic concentration (CC50)", "description": "The vaginal epithelial cell lines HEC-1A and VK2 (500 µl; at a density of 1×10^6 cells/ml) were seeded in a 24-well plate and incubated for 3 days with various concentrations of LabyA1 (500 µl). Cell cytotoxicity was determined microscopically and by flow cytometry (FACSCalibur, BD Biosciences, Erembodegem, Belgium)."}, "HIV-2 ROD (R5/X4) [8]": {"test_system": "HIV-2 ROD (R5/X4)", "conditions": "read-out: EC50 (µM ± SEM), MT-4 cells, MTS/PES method"}, "HSV-2": {"test_system": "HSV-2", "assay": "Cellular binding experiment: pre-treatment of cells, compound removed, HSV-2 infection", "format": "cell-based", "conditions": "data not shown"}},
  "note": "Like-named read-outs stand apart in the source and are kept apart here.",
  "data": [
    {"smiles": "C/C=C1\\NC(=O)[C@H](Cc2ccccc2)NC(=O)[C@@H]2CCCN2C(=O)[C@H](C(C)C)NC(=O)[C@H](Cc2c[nH]c3ccccc23)NC(=O)[C@]23CSC[C@H](NC1=O)C(=O)N[C@H](C(=O)O)CSSC[C@H](NC(=O)[C@@H]1CSC[C@]4(C[C@H](N)C(=O)N[C@@H](CC(N)=O)C(=O)N[C@@H](C)C(=O)N4)C(=O)N[C@@H](C(C)C)C(=O)N[C@@H](Cc4c[nH]c5ccccc45)C(=O)N[C@@H](CCC(=O)O)C(=O)N1)C(=O)N[C@@H](C2)C(=O)N[C@@H]([C@@H](C)O)C(=O)NCC(=O)N3", "note": "[LabyA1, labyrinthopeptin A1]", "values": [
      {"measurement": "CC50", "setting": "[1]", "result": "> 48", "unit": "µM"},
      {"measurement": "EC50", "setting": "[2]", "result": "0.29 ± 0.1", "unit": "µM"},
      {"measurement": "EC50", "setting": "HSV-1 TK^-", "result": 1.9, "unit": "µM"},
      {"measurement": "EC50", "setting": "[3]", "result": "2.8 ± 0.5", "unit": "µM"},
      {"measurement": "EC50", "setting": "HIV-1 IIIB^FGMres. (X4)", "result": "1.9 ± 0.1", "unit": "µM"},
      {"measurement": "HSV-2 induced CPE, compound given simultaneously with virus (0 h)", "setting": "HSV-2 strain G", "result": "no CPE or viral replication were observed"},
      {"measurement": "antiviral activity, compound added after 2 h adsorption period", "setting": "HSV-2 strain G", "result": "significant decrease"},
      {"measurement": "induction of calcium signaling by compound itself", "setting": "CCR5", "result": "could not induce by itself calcium signaling"},
      {"measurement": "inhibition of LD78β (CCL3L1)-induced intracellular calcium flux", "setting": "CCR5; 10 ng/ml LD78β", "result": "could also not inhibit the intracellular calcium flux"},
      {"measurement": "EC50", "setting": "[4]", "result": "0.7 ± 0.19", "unit": "µM"},
      {"measurement": "EC50", "setting": "HIV-1 NL4.3^AZTres. (X4)", "result": "1.1 ± 0.1", "unit": "µM"},
      {"measurement": "EC50", "setting": "[5]", "result": "1.4 ± 0.4", "unit": "µM"},
      {"measurement": "EC50", "setting": "HIV-1 IIIB (X4)", "result": "2 ± 0.6", "unit": "µM"},
      {"measurement": "EC50", "setting": "HIV-2 ROD (R5/X4) [6]", "result": "1 ± 0.3", "unit": "µM"},
      {"measurement": "induction of calcium signaling by compound itself", "setting": "CXCR4", "result": "could not induce by itself calcium signaling"},
      {"measurement": "inhibition of SDF-1α (CXCL12)-induced intracellular calcium flux", "setting": "CXCR4; 100 ng/ml SDF-1α", "result": "could also not inhibit the intracellular calcium flux"},
      {"measurement": "growth inhibitory effects on Lactobacillus strains", "setting": "Lactobacillus strains", "result": "no growth inhibitory effects were observed"},
      {"measurement": "time-of-drug-addition profile", "setting": "HIV-1 IIIB", "result": "prevented HIV infection at an early time point somewhat comparable with AMD3100"},
      {"measurement": "EC50", "setting": "HIV-1 BaL (R5)", "result": "3.3 ± 0.4", "unit": "µM"},
      {"measurement": "CC50", "setting": "[7]; HEC-1A (endometrium carcinoma)", "result": 34, "unit": "µM"},
      {"measurement": "CC50", "setting": "[7]; VK2 (vaginal epithelial)", "result": "> 48", "unit": "µM"},
      {"measurement": "EC50", "setting": "HIV-2 ROD (R5/X4) [8]", "result": "1.9 ± 0.7", "unit": "µM"},
      {"measurement": "inhibition of HSV-2 replication after pre-treatment of cells for 1 h and removal of compound", "setting": "HSV-2", "result": "lost its ability to inhibit HSV-2 replication"}
    ]}
  ]
}
